Patent US20240383882A1 (Ecstasy LLC, priority 2020, published 2024)
Structures can show the parent of a compound that is named as a salt. Where two headings read alike, the source gives them in different places.

Test system: male C57BL/6 mice
Experiment: 55° C. warm-water tail-flick test (antinociception)
Assay type: in vivo
Settings: for ED50: Mus musculus
Method in brief: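 Subcutaneous dosing, then tail immersion in 55° C water at 30–120 min; latency normalized as 100×(test−control)/(20−control), using a 20 s cutoff, after excluding mice not responding within 2 s at baseline. Values expressed as ED50 (mg/kg).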

[1] = half maximal effective dose in mice, using one of: warm water tail-flick test, spared nerve injury, chronic constriction injury, or Complete Freund's adjuvant induced inflammatory pain (not stated which per compound), read-out: Biological Activity (ED50)
[2] = sc, 0.5 h, compounds of Table I, s.c., 30 min, 55° C. water, configuration tested as in Table II, read-out: ED50 (mg/kg) at 30 min on C57BL/6 mice in Warm-water Tail-flick Test

With `COc1cccc(C(C)(C)N2CC[C@@](CCc3ccc(C#N)cc3)(C(N)=O)C2)n1` [Compound 159, (R)-3-(4-cyanophenethyl)-1-(2-(6-methoxypyridin-2-yl)propan-2-yl)pyrrolidine-3-carboxamide] the ED50 [1] was ≤ 30 mg/kg.
`CC(C)(c1ccccn1)N1CC[C@@](CCc2ccc(F)c(F)c2)(C(O)C(F)(F)F)C1` (single isomer, unassigned) [Compound 151, (R or S)-1-((R)-3-(3,4-difluorophenethyl)-1-(2-(pyridin-2-yl)propan-2-yl)pyrrolidin-3-yl)-2,2,2-trifluoroethan-1-ol] was tested, and the “Biological Activity (ED50)” value (half maximal effective dose in mice, using one of: warm water tail-flick test, spared nerve injury, chronic constriction injury, or Complete Freund's adjuvant induced inflammatory pain (not stated which per compound)) was “+ (+ indicates ED 50>50 mg/kg)”.
For `CCOC[C@]1(CCc2ccc(S(C)(=O)=O)cc2)CCN(C(C)(C)c2ccc(Cl)cc2)C1` [Compound 221, (R)-1-(2-(4-chlorophenyl)propan-2-yl)-3-(ethoxymethyl)-3-(4-(methylsulfonyl)phenethyl) pyrrolidine], the ED50 [1] was > 50 mg/kg.
In the case of `COc1cccc(C(C)(C)N2CC[C@](CO)(CCc3ccc(C#N)cc3)C2)c1` [Compound 142, (R)-4-(2-(3-(hydroxymethyl)-1-(2-(3-methoxyphenyl)propan-2-yl)pyrrolidin-3-yl)ethyl) benzonitrile], the ED50 [1] is reported as > 50 mg/kg.
For `CC(C)(c1ccccn1)N1CC[C@@](CCc2ccc(C#N)s2)(C(=O)C(F)(F)F)C1` [Compound 154, (R)-5-(2-(1-(2-(pyridin-2-yl)propan-2-yl)-3-(2,2,2-trifluoroacetyl)pyrrolidin-3-yl)ethyl)thiophene-2-carbonitrile], the ED50 [1] was > 50 mg/kg.
`CCOCC1(CCc2ccc(F)cc2)CCN(Cc2cncc(F)c2)C1` (single isomer, unassigned) [Compound 45] was tested, and the ED50 [2] was > 50 mg/kg.
In the case of `Cc1cccc(C(C)(C)N2CC[C@@](CCc3ccc(C#N)cc3)(C(N)=O)C2)n1` [Compound 149, (R)-3-(4-cyanophenethyl)-1-(2-(6-methylpyridin-2-yl)propan-2-yl)pyrrolidine-3-carboxamide], the ED50 [1] is reported as > 50 mg/kg.
For `CC(C)(c1ccccn1)N1CC[C@](CO)(CCc2ccc3nonc3c2)C1` [Compound 167, (R)-(3-(2-(benzo[c][1,2,5]oxadiazol-5-yl)ethyl)-1-(2-(pyridin-2-yl)propan-2-yl)pyrrolidin-3-yl)methanol], the ED50 [1] was ≤ 30 mg/kg.
With `CC(C)(c1ccccn1)N1CC[C@@](CCc2ccc3ccoc3c2)(C(O)C(F)(F)F)C1` (single isomer, unassigned) [Compound 172, (R or S)-1-((R)-3-(2-(benzofuran-6-yl)ethyl)-1-(2-(pyridin-2-yl)propan-2-yl)pyrrolidin-3-yl)-2,2,2-trifluoroethan-1-ol] the ED50 [1] was > 50 mg/kg.
For `Cc1ccc(C(C)(C)N2CC[C@@](CCc3ccc(C#N)cc3)(C(O)(C(F)(F)F)C(F)(F)F)C2)cn1` [Compound 165, (R)-4-(2-(3-(1,1,1,3,3,3-hexafluoro-2-hydroxypropan-2-yl)-1-(2-(6-methylpyridin-3-yl)propan-2-yl)pyrrolidin-3-yl)ethyl) benzonitrile], the ED50 [1] was ≤ 30 mg/kg.
With `CC(O)[C@]1(CCc2ccc(S(C)(=O)=O)cc2)CCN(C(C)(C)c2ccc(Cl)cc2)C1` (single isomer, unassigned) [Compound 219, (R or S)-1-((R)-1-(2-(4-chlorophenyl)propan-2-yl)-3-(4-(methylsulfonyl)phenethyl)pyrrolidin-3-yl)ethan-1-ol] the ED50 [1] was > 50 mg/kg.
With `CCOC(C(F)(F)F)(C(F)(F)F)[C@]1(CCc2ccc(C#N)cc2)CCN(C(C)(C)c2ccns2)C1` [Compound 22, (R)-4-(2-(3-(2-ethoxy-1,1,1,3,3,3-hexafluoropropan-2-yl)-1-(2-(isothiazol-5-yl)propan-2-yl)pyrrolidin-3-yl)ethyl) benzonitrile] the ED50 [1] was ≤ 30 mg/kg.
With `CC(C)(c1ccccn1)N1CC[C@](CO)(CCc2ccc(C#N)cc2F)C1` [Compound 111, (R)-3-fluoro-4-(2-(3-(hydroxymethyl)-1-(2-(pyridin-2-yl)propan-2-yl)pyrrolidin-3-yl)ethyl) benzonitrile] the ED50 [1] was > 50 mg/kg.
In the case of `CC(C)(c1ccccn1)N1CC[C@](CN)(CCc2ccc(C#N)cc2)C1` [Compound 115, (S)-4-(2-(3-(aminomethyl)-1-(2-(pyridin-2-yl)propan-2-yl)pyrrolidin-3-yl)ethyl) benzonitrile], the ED50 [1] is reported as > 50 mg/kg.
In the case of `N#Cc1ccc(CC[C@@]2(C3OCC3(F)F)CCN(Cc3cccnc3)C2)cc1` (single isomer, unassigned) [Compound 197, 4-(2-((R)-3-((R or S)-3,3-difluorooxetan-2-yl)-1-(pyridin-3-ylmethyl)pyrrolidin-3-yl)ethyl) benzonitrile], the ED50 [1] is reported as ≤ 30 mg/kg.
For `Cc1ccc(C(C)(C)N2CCC(CCc3ccc(F)s3)(CNS(=O)(=O)C(C)C)C2)cn1` (single isomer, unassigned) [Compound 320], the ED50 [2] was ≤ 30 mg/kg.
With `Cc1ccc(C(C)(C)N2CCC(CCc3ccc(F)s3)(C3OCCc4ccccc43)C2)cn1` (single isomer, unassigned) [Compound 94, 5-(2-((R or S)-3-(2-(5-fluorothiophen-2-yl)ethyl)-3-((R or S)-isochroman-1-yl)pyrrolidin-1-yl)propan-2-yl)-2-methylpyridine citrate] the ED50 [2] was ≤ 30 mg/kg.
For `CC(C)(c1ccccn1)N1CC[C@@](CCc2ccc3nonc3c2)(c2nn[nH]n2)C1` [Compound 181, (R)-5-(2-(1-(2-(pyridin-2-yl)propan-2-yl)-3-(2H-tetrazol-5-yl)pyrrolidin-3-yl)ethyl) benzo[c] [1,2,5]oxadiazole], the ED50 [1] was > 50 mg/kg.
In the case of `Cc1ccc(C(C)(C)N2CCC(CCc3cccs3)(c3nnc(C)s3)C2)cn1` (single isomer, unassigned) [Compound 24], the ED50 [2] is reported as ≤ 30 mg/kg.
`CC(C)(c1ccccn1)N1CC[C@@](CCc2ccc(C#N)cc2F)(C(O)C(F)(F)F)C1` (single isomer, unassigned) [Compound 116, 3-fluoro-4-(2-((R)-1-(2-(pyridin-2-yl)propan-2-yl)-3-((R or S)-2,2,2-trifluoro-1-hydroxyethyl)pyrrolidin-3-yl)ethyl) benzonitrile] was tested, and the ED50 [1] was > 50 mg/kg.
In the case of `CC1(C)COC1[C@]1(CCc2ccc(C#N)cc2)CCN(Cc2cccnc2)C1` (single isomer, unassigned) [Compound 193, 4-(2-((R)-3-((R or S)-3,3-dimethyloxetan-2-yl)-1-(pyridin-3-ylmethyl)pyrrolidin-3-yl)ethyl) benzonitrile], the ED50 [1] is reported as ≤ 30 mg/kg.
`CC(C)(c1ccccn1)N1CC[C@@](CCc2ccccc2C#N)(COCc2ccccc2)C1` [Compound 126, (R)-2-(2-(3-((benzyloxy)methyl)-1-(2-(pyridin-2-yl)propan-2-yl)pyrrolidin-3-yl)ethyl) benzonitrile] was tested, and the ED50 [1] was > 50 mg/kg.
With `CC(C)(c1ccccn1)N1CC[C@@](CCc2ccc(C#N)cc2F)(COCc2ccccc2)C1` [Compound 109, (R)-4-(2-(3-((benzyloxy)methyl)-1-(2-(pyridin-2-yl)propan-2-yl)pyrrolidin-3-yl)ethyl)-3-fluorobenzonitrile] the ED50 [1] was > 50 mg/kg.
`CC(C)c1nc(C(C)(C)N2CC[C@@](CCc3ccc(S(C)(=O)=O)cc3)(C3CCCO3)C2)cs1` (single isomer, unassigned) [Compound 29, 2-isopropyl-4-(2-((R)-3-(4-(methylsulfonyl)phenethyl)-3-((R or S)-tetrahydrofuran-2-yl)pyrrolidin-1-yl)propan-2-yl)thiazole] was tested, and the ED50 [1] was ≤ 30 mg/kg.
`CC1(C)COC1[C@]1(CCc2ccc(C#N)cc2)CCN(Cc2ccc(C#N)cc2)C1` (single isomer, unassigned) [Compound 204, 4-(2-((R)-1-(4-cyanobenzyl)-3-((R or S)-3,3-dimethyloxetan-2-yl)pyrrolidin-3-yl)ethyl) benzonitrile] was tested, and the ED50 [1] was ≤ 30 mg/kg.
In the case of `CCOC[C@@]1(CCc2ccc(C#N)cc2)CCN(C(c2cccnc2)c2cccnc2)C1` [Compound 27, (S)-4-(2-(1-(di(pyridin-3-yl)methyl)-3-(ethoxymethyl)pyrrolidin-3-yl)ethyl) benzonitrile], the ED50 [1] is reported as > 50 mg/kg.
With `CC(C)(c1ccc(Cl)cc1)N1CC[C@](CO)(CCc2ccc(S(C)(=O)=O)cc2)C1` [Compound 35, (R)-(1-(2-(4-chlorophenyl)propan-2-yl)-3-(4-(methylsulfonyl)phenethyl)pyrrolidin-3-yl)methanol] the ED50 [1] was > 50 mg/kg.
For `CCOC(=O)[C@]1(CCc2ccc(C#N)cc2)CCN(C(C)(C)c2ccccn2)C1` [Compound 139, ethyl (R)-3-(4-cyanophenethyl)-1-(2-(pyridin-2-yl)propan-2-yl)pyrrolidine-3-carboxylate], the ED50 [1] was > 50 mg/kg.
For `CC(C)(c1ccccn1)N1CC[C@@](CCc2ccc(C#N)c(F)c2)(COCc2ccccc2)C1` [Compound 112, (R)-4-(2-(3-((benzyloxy)methyl)-1-(2-(pyridin-2-yl)propan-2-yl)pyrrolidin-3-yl)ethyl)-2-fluorobenzonitrile], the ED50 [1] was > 50 mg/kg.
`CC(C)(c1ccccn1)N1CC[C@](C#N)(CCc2ccc(F)c(F)c2)C1` [Compound 175, (R)-3-(3,4-difluorophenethyl)-1-(2-(pyridin-2-yl)propan-2-yl)pyrrolidine-3-carbonitrile] was tested, and the ED50 [1] was > 50 mg/kg.
`Cc1ccc(C(C)(C)N2CC[C@@](CCc3ccc(C#N)cc3)(COCC(F)(F)F)C2)cn1` [Compound 26, (R)-4-(2-(1-(2-(6-methylpyridin-3-yl)propan-2-yl)-3-((2,2,2-trifluoroethoxy)methyl)pyrrolidin-3-yl)ethyl)benzonitrile] was tested, and the ED50 [1] was > 50 mg/kg.
In the case of `CC1(C)COC1[C@]1(CCc2ccc(C#N)cc2)CCN(Cc2ncc(Cl)cn2)C1` (single isomer, unassigned) [Compound 210, 4-(2-((R)-1-((5-chloropyrimidin-2-yl)methyl)-3-((R or S)-3,3-dimethyloxetan-2-yl)pyrrolidin-3-yl)ethyl)benzonitrile], the ED50 [1] is reported as > 50 mg/kg.
`CC(C)(c1ccccn1)N1CC[C@](COCc2ccc(C#N)cc2)(C2CCCO2)C1` (single isomer, unassigned) [Compound 74] was tested, and the ED50 [1] was > 50 mg/kg.
